Results taken from patent publication US20070128217A1 (priority 2003, published 2007).

Columns and labels:
[1] = tested on: rabbit serum obtained by immunizing a rabbit with the SARS-CoV strain Frankfurt 1; assay type: binding; parameters: Binding of a rabbit serum to linear peptides / Binding of a rabbit serum to looped peptides / Rabbit serum linear peptides / Rabbit serum looped peptides / Binding of a rabbit serum to linear peptides of protein N of SARS-CoV Urbani (Rabbit serum linear peptides) / Binding of a rabbit serum to looped/cyclic peptides of protein N of SARS-CoV Urbani (Rabbit serum looped peptides): unit not given here
[2] = tested on: antibodies in sera from SARS patients (sera 1a, 1b, 2, 6, 37, 62, London, SARS-yellow, SARS-green); assay type: binding, human; parameters: Binding of serum 6 to linear peptides of protein X1 of SARS-CoV Urbani / Binding of serum 37 to linear peptides of protein X1 of SARS-CoV Urbani / Binding of serum 6 to looped/cyclic peptide (PEPSCAN-ELISA) / Binding of serum 37 to looped/cyclic peptide (PEPSCAN-ELISA) / Binding of serum 37 to looped/cyclic peptides of protein X1 of SARS-CoV Urbani / Binding of serum 6 to linear peptides of protein X2 / Binding of serum 37 to linear peptides of protein X2 / Binding of serum 37 to looped/cyclic peptides of protein X2 of SARS-CoV Urbani / Binding of serum 6 to linear peptides of protein M of SARS-CoV Urbani / Binding of serum 37 to linear peptides of protein M of SARS-CoV Urbani / Binding of serum 6 to looped/cyclic peptides of protein M of SARS-CoV Urbani / Binding of serum 37 to looped/cyclic peptides of protein M of SARS-CoV Urbani / Binding of serum 6 to linear peptides of protein X3 of SARS-CoV Urbani / Binding of serum 37 to linear peptides of protein X3 of SARS-CoV Urbani / Binding of serum 37 to looped/cyclic peptides of protein X3 of SARS-CoV Urbani / Binding of serum 6 to linear peptides of protein X4 of SARS-CoV Urbani / Binding of serum 37 to linear peptides of protein X4 of SARS-CoV Urbani / Binding of serum 37 to looped/cyclic peptides of protein X4 of SARS-CoV Urbani / Binding of serum 6 to linear peptides of protein X5 of SARS-CoV Urbani / Binding of serum 37 to linear peptides of protein X5 of SARS-CoV Urbani / Binding of serum 37 to looped/cyclic peptides of protein X5 of SARS-CoV Urbani / Binding of serum 6 to linear peptides of protein N of SARS-CoV Urbani / Binding of serum 37 to linear peptides of protein N of SARS-CoV Urbani / Binding of serum 6 to linear peptide (PEPSCAN-ELISA) / Binding of serum 1a to looped/cyclic peptides of protein N of SARS-CoV Urbani / Binding of serum 1b to looped/cyclic peptides of protein N of SARS-CoV Urbani / Binding of serum 2 to looped/cyclic peptides of protein N of SARS-CoV Urbani / Binding of serum 6 to looped/cyclic peptides of protein N of SARS-CoV Urbani / Binding of serum 37 to looped/cyclic peptides of protein N of SARS-CoV Urbani / Binding of serum 62 to looped/cyclic peptides of protein N of SARS-CoV Urbani / Binding of serum London to looped/cyclic peptides of protein N of SARS-CoV Urbani / Binding of serum SARS-green to looped/cyclic peptides of protein N of SARS-CoV Urbani: unit not given here
[3] = tested on: control sera (pooled serum of ten healthy LUMC hospital workers; commercial negative donor pooled serum from the Dutch bloodbank); assay type: binding, human; parameters: Binding of Control serum LUMC to linear peptides / Binding of Control serum Blood-bank to linear peptides / Binding of Control serum LUMC to looped peptides / Binding of Control Serum Blood-Bank to Looped peptides / Binding of Control serum LUMC to linear peptides of the protein M of SARS-CoV Urbani / Binding of Control serum Blood-bank to linear peptides of the protein M of SARS-CoV Urbani / Binding of Control serum LUMC to looped peptides of the protein M of SARS-CoV Urbani / Binding of Control Serum Blood-Bank to Looped peptides of the protein M of SARS-CoV Urbani: unit not given here
[4] = tested on: recombinant human anti-SARS-CoV antibody 03-018; assay type: binding; parameters: Binding of antibody 03-018 to linear peptides of the N protein of SARS-CoV Urbani / Binding of antibody 03-018 to looped/cyclic peptides of the N protein of SARS-CoV Urbani: unit not given here

SWFTALTQHGKEELR was tested, and the “Binding of a rabbit serum to linear peptides of protein N of SARS-CoV Urbani (Rabbit serum linear peptides)” value (“Binding … (Rabbit serum linear peptides)” below) [1] was 0.1, the “Binding of a rabbit serum to looped/cyclic peptides of protein N of SARS-CoV Urbani (Rabbit serum looped peptides)” value [1] was 0.0 and the “Binding of serum 1a to linear peptides of protein N of SARS-CoV Urbani” value [2] was 0.2. For the same sequence, the “Binding of serum 1a to looped/cyclic peptides of protein N of SARS-CoV Urbani” value [2] was 0.2, the “Binding of serum 1b to linear peptides of protein N of SARS-CoV Urbani” value [2] was 0.1 and the “Binding of serum 1b to looped/cyclic peptides of protein N of SARS-CoV Urbani” value [2] was 0.1. For the same sequence, the “Binding of serum 2 to linear peptides of protein N of SARS-CoV Urbani” value [2] was 0.2, the “Binding of serum 2 to looped/cyclic peptides of protein N of SARS-CoV Urbani” value [2] was 0.2 and the “Binding of serum 6 to linear peptides of protein N of SARS-CoV Urbani” value [2] was 0.1. The “Binding of serum 6 to looped/cyclic peptides of protein N of SARS-CoV Urbani” value [2] was 0.1, the “Binding of serum 37 to linear peptides of protein N of SARS-CoV Urbani” value [2] was 0.6 and the “Binding of serum 37 to looped/cyclic peptides of protein N of SARS-CoV Urbani” value [2] was 0.3. For the same sequence, the “Binding of serum 62 to linear peptides of protein N of SARS-CoV Urbani” value [2] was 0.6, the “Binding of serum 62 to looped/cyclic peptides of protein N of SARS-CoV Urbani” value [2] was 0.2 and the “Binding of serum London to linear peptides of protein N of SARS-CoV Urbani” value [2] was 0.5. The “Binding of serum London to looped/cyclic peptides of protein N of SARS-CoV Urbani” value [2] was 0.2, the “Binding of serum SARS-green to linear peptides of protein N of SARS-CoV Urbani” value [2] was 0.2 and the “Binding of serum SARS-green to looped/cyclic peptides of protein N of SARS-CoV Urbani” value [2] was 0.1. The “Binding of serum SARS-yellow to linear peptides of protein N of SARS-CoV Urbani” value [2] was 0.5, the “Binding of serum SARS-yellow to looped/cyclic peptides of protein N of SARS-CoV Urbani” value [2] was 0.0 and the “Binding of Control Serum Blood-Bank to Looped peptides” value [3] was 0.4. The “Binding of Control serum Blood-bank to linear peptides” value [3] was 0.6, the “Binding of Control serum LUMC to linear peptides” value [3] was 0.7 and the “Binding of Control serum LUMC to looped peptides” value [3] was 0.3. For the same sequence, the “Binding of antibody 03-018 to linear peptides of the N protein of SARS-CoV Urbani” value [4] was 0.1 and the “Binding of antibody 03-018 to looped/cyclic peptides of the N protein of SARS-CoV Urbani” value [4] was 0.2.

With TALALLLLDRLNQLE the “Binding … (Rabbit serum linear peptides)” value [1] was 0.2, the “Binding of a rabbit serum to looped/cyclic peptides of protein N of SARS-CoV Urbani (Rabbit serum looped peptides)” value [1] was 0.5 and the “Binding of serum 1a to linear peptide (PEPSCAN-ELISA)” value [2] was 0.3. For the same sequence, the “Binding of serum 1a to looped/cyclic peptides of protein N of SARS-CoV Urbani” value [2] was 0.4, the “Binding of serum 1b to linear peptide (PEPSCAN-ELISA)” value [2] was 0.2 and the “Binding of serum 1b to looped/cyclic peptides of protein N of SARS-CoV Urbani” value [2] was 0.3. The “Binding of serum 2 to linear peptide (PEPSCAN-ELISA)” value [2] was 0.2, the “Binding of serum 2 to looped/cyclic peptides of protein N of SARS-CoV Urbani” value [2] was 0.5 and the “Binding of serum 6 to linear peptide (PEPSCAN-ELISA)” value [2] was 0.2. The “Binding of serum 6 to looped/cyclic peptides of protein N of SARS-CoV Urbani” value [2] was 0.3, the “Binding of serum 37 to linear peptide (PEPSCAN-ELISA)” value [2] was 0.7 and the “Binding of serum 37 to looped/cyclic peptides of protein N of SARS-CoV Urbani” value [2] was 0.8. The “Binding of serum 62 to linear peptide (PEPSCAN-ELISA)” value [2] was 0.7, the “Binding of serum 62 to looped/cyclic peptides of protein N of SARS-CoV Urbani” value [2] was 0.7 and the “Binding of serum London to linear peptide (PEPSCAN-ELISA)” value [2] was 0.5. For the same sequence, the “Binding of serum London to looped/cyclic peptides of protein N of SARS-CoV Urbani” value [2] was 0.5, the “Binding of serum SARS-green to linear peptide (PEPSCAN-ELISA)” value [2] was 0.8 and the “Binding of serum SARS-green to looped/cyclic peptides of protein N of SARS-CoV Urbani” value [2] was 0.7. For the same sequence, the “Binding of serum SARS-yellow to linear peptide (PEPSCAN-ELISA)” value [2] was 0.6, the “Binding of serum SARS-yellow to looped/cyclic peptides of protein N of SARS-CoV Urbani” value [2] was 0.5 and the “Binding of Control Serum Blood-Bank to Looped peptides” value [3] was 0.8. For the same sequence, the “Binding of Control serum Blood-bank to linear peptides” value [3] was 0.7, the “Binding of Control serum LUMC to linear peptides” value [3] was 0.7 and the “Binding of Control serum LUMC to looped peptides” value [3] was 0.8. For the same sequence, the “Binding of antibody 03-018 to linear peptides of the N protein of SARS-CoV Urbani” value [4] was 0.1 and the “Binding of antibody 03-018 to looped/cyclic peptides of the N protein of SARS-CoV Urbani” value [4] was 0.2.

With TDNNQNGGRNGARPK the “Binding … (Rabbit serum linear peptides)” value [1] was 0.2, the “Binding of a rabbit serum to looped/cyclic peptides of protein N of SARS-CoV Urbani (Rabbit serum looped peptides)” value [1] was 0.4 and the “Binding of serum 1a to linear peptides of protein N of SARS-CoV Urbani” value [2] was 0.3. The “Binding of serum 1a to looped/cyclic peptides of protein N of SARS-CoV Urbani” value [2] was 0.2, the “Binding of serum 1b to linear peptides of protein N of SARS-CoV Urbani” value [2] was 0.2 and the “Binding of serum 1b to looped/cyclic peptides of protein N of SARS-CoV Urbani” value [2] was 0.1. The “Binding of serum 2 to linear peptides of protein N of SARS-CoV Urbani” value [2] was 0.4, the “Binding of serum 2 to looped/cyclic peptides of protein N of SARS-CoV Urbani” value [2] was 0.2 and the “Binding of serum 6 to linear peptides of protein N of SARS-CoV Urbani” value [2] was 0.2. For the same sequence, the “Binding of serum 6 to looped/cyclic peptides of protein N of SARS-CoV Urbani” value [2] was 0.2, the “Binding of serum 37 to linear peptides of protein N of SARS-CoV Urbani” value [2] was 0.8 and the “Binding of serum 37 to looped/cyclic peptides of protein N of SARS-CoV Urbani” value [2] was 0.4. The “Binding of serum 62 to linear peptides of protein N of SARS-CoV Urbani” value [2] was 1.0, the “Binding of serum 62 to looped/cyclic peptides of protein N of SARS-CoV Urbani” value [2] was 0.2 and the “Binding of serum London to linear peptides of protein N of SARS-CoV Urbani” value [2] was 0.6. The “Binding of serum London to looped/cyclic peptides of protein N of SARS-CoV Urbani” value [2] was 0.3, the “Binding of serum SARS-green to linear peptides of protein N of SARS-CoV Urbani” value [2] was 0.8 and the “Binding of serum SARS-green to looped/cyclic peptides of protein N of SARS-CoV Urbani” value [2] was 0.1. For the same sequence, the “Binding of serum SARS-yellow to linear peptides of protein N of SARS-CoV Urbani” value [2] was 0.7, the “Binding of serum SARS-yellow to looped/cyclic peptides of protein N of SARS-CoV Urbani” value [2] was 0.3 and the “Binding of Control Serum Blood-Bank to Looped peptides” value [3] was 0.5. The “Binding of Control serum Blood-bank to linear peptides” value [3] was 0.9, the “Binding of Control serum LUMC to linear peptides” value [3] was 0.8 and the “Binding of Control serum LUMC to looped peptides” value [3] was 0.5. For the same sequence, the “Binding of antibody 03-018 to linear peptides of the N protein of SARS-CoV Urbani” value [4] was 0.2 and the “Binding of antibody 03-018 to looped/cyclic peptides of the N protein of SARS-CoV Urbani” value [4] was 0.2.
